Measured values reported in US20090041666A1, “Ophthalmic formulations of Amyloid-beta contrast agent and methods of use thereof” (priority 2007, published 2009).
Read-outs that look alike come from different tables or passages of the source. Each block holds one compound with its values, some of them ahead of it.

What was measured:
Aβ(1-40) = target: T1, Aβ(1-40) (Homo sapiens, UniProt P05067); settings: * = compound only partially soluble at this concentration, cited from earlier work
T1 construct: Aβ(1-40)

[1] = pH 7.4; cited from earlier work
[2] = Octanol-water partition coefficient; format: physicochemical; settings: pH 7.4
Excerpt: Those skilled in the art will recognize that the hydrophobicity and hydrophilicity of a substance can be measured using the octanol-water partition coefficient (“Poct” or “Kow”), for compounds whose solubility is not altered by the pH and ionic characteristic of the solute, or LogD value, for compounds whose solubility is altered by the pH and ionic characteristic of the solute. LogD is the logarithm of the distribution coefficient, which is the ratio of the sum of the concentrations of all species of a compound in octanol to the sum of the concentrations of all species of the compound in water.
In these contexts, hydrophobicity is related to factors such as absorption, bioavailabity, hydrophobic drug-receptor interactions, metabolism, and/or toxicity. As used herein, the logPoct is synonymous to logKow, and both measurements are used interchangeably herein. Likewise, logPoct is a functionally equivalent measure to LogD; both values reflect the degree of solubility of a given compound.

Aβ plaques = settings: in vivo animal models and ex vivo human tissue (CR: Aβ aggregations); cited from earlier work
[3] = injected into the tail; ex vivo 2-photon fluorescent microscopy; cited from earlier work
[4] = Solubility in water and in ophthalmic carriers; format: physicochemical
Excerpt: Specifically, a mixture of approximately 85% petrolatum and 15% mineral oil is a suitable carrier. […] The petrolatum in this ophthalmic formulation can act as a carrier for a combination of dissolved and suspended Methoxy-X04, by altering the aqueous portions of the eye to accept the compound more readily by adding lipophilic material to the solution of the eye's environment and by altering the interactions of the eye with the compound by shielding it from the aqueous environment.
Hydroxypropyl methylcellulose can act in part as a carrier of microparticles in suspension for a mixture of dissolved and suspended Methoxy-X04. This effect occurs by altering the aqueous portions of the eye to enable them to accept the hydrophobic compounds more readily, by adding lipophilic material to the eye's environment and/or by altering the interactions of the compound with the eye by shielding the hydrophobic compound from the aqueous environment.
X34 (Formula II) is a ligand molecule that is derived from Congo Red by replacing the naphthalene sulfonic acids with salicylic acids and the azo linkage with an ethenyl link. […] At room temperature, X34 is a yellow powder, which fluoresces upon exposure to UV light. The logPoct for X34 is 0.42. […] Preferably, ophthalmic formulations containing X34 (or other hydrophilic compounds of Formula I) have LogD values of between 1 and 3.

[5] = cited from earlier work
[6] = Particle size after the grinding process; format: physicochemical; settings: micronized by the grinding process
Procedure: For example, Polysorbate 80 is weighed into a polypropylene bottle, and an initial amount of sterile water for injection, USP, is weighed into the bottle. Next, Methoxy-X04 is weighed and added to the bottle. The current batch weight is determined, and the final amount of sterile water for injection to adjust the formulation to a final batch weight is added. Then, the YTZ grinding media is added to the bottle, and the bottle is placed on a roller mill for a minimum of 12 hours at a setting of 50%.
After the milling process, a polishing filter and Masterflex tubing are connected to the bottom of a Millipore housing assembly, while a high-pressure hose is attached to the top of the Millipore housing. Using a nitrogen pressure gauge, the solution is pushed thorough the housing and the polish filter. For example, the pressure used is between 3 psi and 5 psi. This grinding process yields micronized Methoxy-X04 having a mean particle size of 1.157 μm with 100% of particles smaller than 10 μm and greater than 75% of particles smaller than 5 μm. Thus, those skilled in the art will recognize that this exemplary milling process produces Methoxy-X04 particles that are suitable for either topical or parenteral formulation, without requiring the use of solvents, such as dimethyl sulfoxide, that are incompatible with use in drug formulations.

[7] = given as Inact, tested at 10 μm

T1 sequence (P05067 672-711 limits assumed): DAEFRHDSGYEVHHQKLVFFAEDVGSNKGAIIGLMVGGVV

Compound: O=C(O)c1cccc(/C=C/c2ccc(/C=C/c3cccc(C(=O)O)c3)cc2)c1 [X:E:B30]
Ki (Aβ(1-40); [3H]CG binding to Aβ(1-40)): 0.135 µM

Poct of CG relative to CR [2]: ~100 fold
Compound: O=C(O)c1cc(/N=N/c2ccc(-c3ccc(/N=N/c4ccc(O)c(C(=O)O)c4)cc3)cc2)ccc1O [CG, Chrysamine G]
logPoct [1]: 1.8
octanol-water partition coefficient (Poct) [1]: 60

Compound: COc1ccc(/C=C/c2ccc(/C=C/c3ccc(OC)cc3)c(OC)c2)cc1 [2′-CH3O-X:E:B04 bis(4-methoxy)]
Ki (Aβ(1-40); [7]): > 10 µM

Compound: COC(=O)c1cc(/C=C/c2ccc(/C=C/c3ccc(OC)c(C(=O)OC)c3)cc2)ccc1OC [X:E:B34 bis(4-methoxy) dimethyl ester]
Ki (Aβ(1-40); [7]): > 10 µM

Compound: COc1cc(/C=C/c2ccc(O)cc2)ccc1/C=C/c1ccc(O)cc1 [2-CH3O-X:E:B04]
binding to Aβ plaques / aggregations (Aβ plaques): selectively binds to Aβ plaques
detection in the lens [3]: could be detected in the supranuclear region of the lens
solubility in water [4]: insoluble
state in carrier at 10 mg/gm ([4]; 10 mg/gm of carrier, petrolatum and mineral oil): remains primarily in suspension
state in carrier at 0.1% ([4]; 0.1% (1 mg per gm carrier), aqueous formulation with hydroxypropyl methylcellulose): remains in solution
state in carrier at 0.1% ([4]; 0.1% (1 mg per gm of carrier), about 85% petrolatum and 15% mineral oil): remains in solution
Oral rat LD50 [5]: ~15000 mg/kg
mean particle size [6]: 1.157 μm
particles smaller than 5 μm [6]: greater than 75%
particles smaller than 10 μm [6]: 100%
Ki (Aβ(1-40); [3H]CG binding to Aβ(1-40)): 0.027 µM

Compound: COC(=O)c1cccc(/C=C/c2ccc(/C=C/c3cccc(C(=O)OC)c3)cc2)c1 [X:E:B30 dimethylester]
Ki (Aβ(1-40); [7]): > 10 µM

Compound: O=C(O)c1cc(/C=C/c2ccc(/C=C/c3ccc(O)c(C(=O)O)c3)cc2)ccc1O [X:E:B34 (X-34)]
binding to Aβ plaques / aggregations (Aβ plaques): selectively binds to β-amyloid plaques
solubility in water [4]: moderately soluble
state in carrier at 0.1% ([4]; 0.1% of X34 (1 mg active per gm of carrier)): appears to remain in solution
Oral rat LD50 [5]: ~15000 mg/kg
Ki (Aβ(1-40); [3H]CG binding to Aβ(1-40)): 0.018 µM

Compound: Oc1ccc(/C=C/c2ccc(/C=C/c3ccc(O)cc3)cc2)cc1 [X:E:B04]
Ki (Aβ(1-40); [3H]CG binding to Aβ(1-40)): 3.1 µM

Compound: COc1ccc(/C=C/c2ccc(/C=C/c3ccc(OC)cc3)cc2)cc1 [X:E:B04 bis(4-methoxy)]
Ki (Aβ(1-40); [7]): > 10 µM

Compound: COc1ccc(/C=C/c2ccc(/C=C/c3ccc(OC)c(C(=O)O)c3)cc2)cc1C(=O)O [X:E:B34 bis(4-methoxy)]
Ki (Aβ(1-40); [3H]CG binding to Aβ(1-40)): 0.047 µM

Compound: Nc1c(/N=N/c2ccc(-c3ccc(/N=N/c4cc(S(=O)(=O)O)c5ccccc5c4N)cc3)cc2)cc(S(=O)(=O)O)c2ccccc12 [CR, Congo Red]
binding to Aβ plaques / aggregations (Aβ plaques): selectively binds to Aβ aggregations with high affinity
logPoct [1]: 0.18
octanol-water partition coefficient (Poct) [1]: 0.7

Compound: Oc1ccc(/C=C/c2ccc(/C=C/c3ccc(O)cc3)c(O)c2)cc1 [2′-HO-X:E:B04]
Ki (Aβ(1-40); [3H]CG binding to Aβ(1-40)): 0.009 µM

Compound: COc1ccc(/C=C/c2ccc(/C=C/c3ccc(OC)cc3)c(O)c2)cc1 [2′-HO-X:E:B04bis(4-methoxy)]
Ki (Aβ(1-40); [7]): > 10 µM

Compound: COC(=O)c1cc(/C=C/c2ccc(/C=C/c3ccc(O)c(C(=O)OC)c3)cc2)ccc1O [X:E:B34 dimethylester]
Ki (Aβ(1-40); [3H]CG binding to Aβ(1-40)): 0.119 µM
